Experimental data reported in paper PMC8776995 (Frontiers in Chemistry, 2022).
Several values for one entry are separate records, joined by “and”; a condition that tells them apart may be missing. Equal entries are not always repeated. Where two headings read alike, the source gives them in different places.

What was measured:
PC-9 cells [1] = assay: Hoechst 33342 staining for cell apoptosis; format: cell-based, human; conditions: PC-9, various concentrations, 48 h, vs 0.1% DMSO
Description: To further verify the impact of compounds e4 and e12 on apoptosis of NSCLC cells, PC-9 cells were treated with either compound e4 or e12 at various concentrations for 48 h and then stained with dye Hoechst 33342.
PC-9 cells were seeded in 96-well plates, then treated with 0.1% DMSO (as control) or various concentrations of compound e4 or e12 for 48 h. Culture medium from the cells was removed and replaced with medium containing dye Hoechst 33342. Cells were incubated at 37°C for 5–15 min, washed with PBS twice, and then observed and imaged under the Nikon Ti-U microscope.

PC-9 cells [2] = assay: Flow cytometry detection for cell cycle, PC-9; format: cell-based, human; conditions: for G0/G1 / G2/M / S: single repeats (Repeat 1-3)
Description: (§1) To investigate the effects of compounds e4 and e12 on various phases of the cell cycle, PC-9 cells were treated with compound e4 or e12 of various concentrations for 24 h, and H460 cells were treated with compound e4 or e12 of various concentrations for 12 h.
(§2) PC-9 or H460 (2 × 10^5–3 × 10^5/well) cells were seeded in six-well plates for 24 h, and then treated with 0.1% DMSO (as control), various concentrations of either compound e4 or e12 for 24 h (PC-9) or 12 h (H460), respectively. The treated cells were harvested, washed with PBS, and then stained using the cell-cycle staining kit according to the manufacturer’s manual. The distribution of cell-cycle phases with different DNA contents was determined by flow cytometry (BD LSRFortessa™ Flow Cytometer) and analyzed using ModFit LT software.

H460 cells [3] = assay: Flow cytometry detection for cell cycle, H460; format: cell-based, human; conditions: for G0/G1 / G2/M / S: single experiments (20200711, 20200810, 20200812)
Description: as §1, §2

[4] = system: AKT phosphorylation (S473) in H460 cells; assay: Western blot, p-AKT/AKT in H460; conditions: for p-AKT/AKT: band density ratio; for p-AKT/AKT relative to DMSO: ratio normalised to DMSO
Description: (§3) We also performed western blot analysis to evaluate the impact of e4 and e12 on EGFR signaling in PC-9 and H460 cells.
(§4) H460 cells were seeded in six-well plates with serum-free medium overnight, and then treated complete medium containing 0.1% DMSO, various concentrations (0.1, 1 and 10 μM) of either compound e4 or e12 for 2 h, respectively. […] Then the H460 cells were treated with complete medium containing EGF (10 ng/ml) for 5 min. Then the cells were harvested and washed with PBS, centrifuged, resuspended in 100–200 μl of RIPA lysis buffer containing Protease and Phosphatase Inhibitor Cocktail (1X), and then centrifuged for 5 min at 12,000 rpm at 4°C. The supernatant was used for protein analysis. […] Then the membrane was washed 5 min (X3) and incubated at 1:3,000 dilution of anti-rabbit secondary antibodies or 1:1,000 dilution of anti-mouse secondary antibodies for 1 h at RT. After washing with TBST 5 min (X3), protein bands were developed by chemiluminescence. The protein levels were quantified by the gray values of the bands in the resulting images by ImageJ, and the control group was used as the standard. […] The PC-9 cells were harvested and analyzed as above.

[5] = system: AKT phosphorylation (S473) in PC-9 cells; assay: Western blot, p-AKT/AKT in PC-9; conditions: for p-AKT/AKT: band density ratio; for p-AKT/AKT relative to DMSO: ratio normalised to DMSO = 1
Description: as §3, §4

[6] = system: EGFR phosphorylation (Tyr1068) in PC-9 cells; assay: Western blot, p-EGFR/EGFR in PC-9; conditions: for p-EGFR/EGFR: band density ratio; for p-EGFR/EGFR relative to DMSO: ratio normalised to DMSO = 1
Description: as §3, §4

H460 cells [7] = assay: CCK-8 antiproliferation assay, H460; conditions: for Inhibitory efficacy: H460 cells
Description: (§5) The compounds were dissolved in DMSO to make a 20 μM stock solution and diluted to the concentration of working solutions with complete growth medium before administration.
(§6) Cells were seeded in 96-well plates: 3,000–5,000 cells/well in 100 ul. One day after seeding, the test compounds at concentration between 1.0 and 16.0 μ M or 0.1% DMSO (as control) were added to cells in triplicate. 48 h later, CCK-8 was added and incubated the plate for 1–4 h in the incubator. The absorbance at 450 nm were measured using a microplate reader (Bio-Tek).

PC-9 cells [8] = assay: CCK-8 antiproliferation assay, PC-9; conditions: for Inhibitory efficacy: single repeats (Repeat 1-3), given as fraction
Description: as §5, §6

SMILES: COCCOc1cc2ncnc(Nc3cccc(-c4cn(Cc5cc(Br)cc(Br)c5)nn4)c3)c2cc1OCCOC [e4, [6,7-Bis-(2-methoxy-ethoxy)-quinazolin-4-yl]-{3-[1-(3,5-dibromo-benzyl)-1H-[1,2,3]triazol-4-yl]-phenyl}-amine]
- apoptotic morphology, Hoechst 33342 staining (PC-9 cells [1]): exhibited features typical of apoptosis
- G0/G1 (PC-9 cells [2]; PC-9, 4uM): 48.12 and 48.79 and 52.62
- G2/M (PC-9 cells [2]; PC-9, 4uM): 15.27 and 15.42 and 15.56
- S (PC-9 cells [2]; PC-9, 4uM): 36.61 and 35.79 and 31.83
- G0/G1 (PC-9 cells [2]; PC-9, 8uM): 53.18 and 53.63 and 55.05
- G2/M (PC-9 cells [2]; PC-9, 8uM): 16.92 and 17.15 and 16.88
- S (PC-9 cells [2]; PC-9, 8uM): 29.9 and 29.22 and 28.08
- G0/G1 (PC-9 cells [2]; PC-9, 12uM): 60.53 and 62.02 and 63.46
- G2/M (PC-9 cells [2]; PC-9, 12uM): 23.33 and 22.27 and 17.86
- S (PC-9 cells [2]; PC-9, 12uM): 16.14 and 15.71 and 18.68
- percentage of cells in the G0/G1 phase (PC-9 cells [2]; PC-9, various concentrations, 24 h): induced higher percentages
- G0/G1 (H460 cells [3]; H460, 4uM): 42.32% and 41.29% and 53.43%
- G2/M (H460 cells [3]; H460, 4uM): 16.95% and 17.5% and 12.27%
- S (H460 cells [3]; H460, 4uM): 40.73% and 41.21% and 34.3%
- G0/G1 (H460 cells [3]; H460, 8uM): 48.11% and 44.75% and 59.66%
- G2/M (H460 cells [3]; H460, 8uM): 16.79% and 18.81% and 11.77%
- S (H460 cells [3]; H460, 8uM): 35.11% and 36.45% and 28.56%
- G0/G1 (H460 cells [3]; H460, 12uM): 48.29% and 43.3% and 54.65%
- G2/M (H460 cells [3]; H460, 12uM): 17.85% and 18.86% and 13.72%
- S (H460 cells [3]; H460, 12uM): 33.86% and 38.02% and 31.63%
- percentage of cells in the G0/G1 phase (H460 cells [3]; H460, various concentrations, 12 h): induced higher percentages
- p-AKT/AKT ([4]; H460, 0.1 uM): 1.245
- p-AKT/AKT relative to DMSO ([4]; H460, 0.1 uM): 1.252
- p-AKT/AKT ([4]; H460, 1 uM): 0.733
- p-AKT/AKT relative to DMSO ([4]; H460, 1 uM): 0.7369
- p-AKT/AKT ([4]; H460, 10 uM): 1.039
- p-AKT/AKT relative to DMSO ([4]; H460, 10 uM): 1.044
- phosphorylation of AKT (western blot) ([4]; H460, especially at 10 μM): suppressed
- p-AKT/AKT ([5]; PC-9, 0.1 uM): 0.8512
- p-AKT/AKT relative to DMSO ([5]; PC-9, 0.1 uM): 0.8172
- p-AKT/AKT ([5]; PC-9, 1 uM): 0.7155
- p-AKT/AKT relative to DMSO ([5]; PC-9, 1 uM): 0.6869
- p-AKT/AKT ([5]; PC-9, 10 uM): 0.5338
- p-AKT/AKT relative to DMSO ([5]; PC-9, 10 uM): 0.5125
- phosphorylation of AKT (western blot) ([5]; PC-9, especially at 10 μM): suppressed
- p-EGFR/EGFR ([6]; PC-9, 0.1 uM): 0.3318
- p-EGFR/EGFR relative to DMSO ([6]; PC-9, 0.1 uM): 0.2965
- p-EGFR/EGFR ([6]; PC-9, 1 uM): 0.2248
- p-EGFR/EGFR relative to DMSO ([6]; PC-9, 1 uM): 0.2009
- p-EGFR/EGFR ([6]; PC-9, 10 uM): 0.5115
- p-EGFR/EGFR relative to DMSO ([6]; PC-9, 10 uM): 0.4571
- phosphorylation of EGFR (western blot) ([6]; PC-9, especially at 10 μM): suppressed
- Inhibitory efficacy (H460 cells [7]; 1uM, given as fraction, Repeat 1-3): 0.09927 and 0.1204
- Inhibitory efficacy (H460 cells [7]; 2uM, given as fraction, Repeat 1-3): 0.08541 and 0.1118
- Inhibitory efficacy (H460 cells [7]; 8uM, given as fraction, Repeat 1-3): 0.8422 and 0.8158
- Inhibitory efficacy (H460 cells [7]; 16uM, given as fraction, Repeat 1-3): 0.9425 and 0.965
- IC50 (H460 cells [7]; Homo sapiens, NCI-H460, 48 h, read-out: IC50 (μM) H460, CCK-8, 48 h, average ± SD of three independent experiments): < 10 µM
- inhibition at 1 µM (H460 cells [7]; Homo sapiens, NCI-H460, read-out: Inhibitory efficacy, H460 cells, 1uM, given as fraction, Repeat 1-3): 19.4%
- inhibition at 2 µM (H460 cells [7]; Homo sapiens, NCI-H460, read-out: Inhibitory efficacy, H460 cells, 2uM, given as fraction, Repeat 1-3): 16.7%
- inhibition at 8 µM (H460 cells [7]; Homo sapiens, NCI-H460, read-out: Inhibitory efficacy, H460 cells, 8uM, given as fraction, Repeat 1-3): 79.5%
- inhibition at 16 µM (H460 cells [7]; Homo sapiens, NCI-H460, read-out: Inhibitory efficacy, H460 cells, 16uM, given as fraction, Repeat 1-3): 95%
- IC50 (H460 cells [7]; read-out: IC50 (μM) H460, CCK-8, 48 h, average ± SD of three independent experiments): 5.18 ± 0.78 µM
- IC50 (PC-9 cells [8]; Homo sapiens, PC-9, 48 h, read-out: IC50 (μM) PC-9): 4.38 ± 0.12 µM
- inhibition at 1 µM (PC-9 cells [8]; Homo sapiens, PC-9, read-out: Inhibitory efficacy, PC-9, 1uM, single repeats (Repeat 1-3), given as fraction): 4.24%
- inhibition at 2 µM (PC-9 cells [8]; Homo sapiens, PC-9, read-out: Inhibitory efficacy, PC-9, 2uM, single repeats (Repeat 1-3), given as fraction): 12.8%
- inhibition at 4 µM (PC-9 cells [8]; Homo sapiens, PC-9, read-out: Inhibitory efficacy, PC-9, 4uM, single repeats (Repeat 1-3), given as fraction): 40%
- inhibition at 8 µM (PC-9 cells [8]; Homo sapiens, PC-9, read-out: Inhibitory efficacy, PC-9, 8uM, single repeats (Repeat 1-3), given as fraction): 88.1%
- inhibition at 16 µM (PC-9 cells [8]; Homo sapiens, PC-9, read-out: Inhibitory efficacy, PC-9, 16uM, single repeats (Repeat 1-3), given as fraction): 85.7%
- Inhibitory efficacy (PC-9 cells [8]; PC-9, 1uM, 1 µM): 0.05688 and 0.04243
- Inhibitory efficacy (PC-9 cells [8]; PC-9, 2uM, 2 µM): 0.1851 and 0.2067
- Inhibitory efficacy (PC-9 cells [8]; PC-9, 4uM, 4 µM): 0.4288 and 0.3873
- Inhibitory efficacy (PC-9 cells [8]; PC-9, 8uM, 8 µM): 0.8667 and 0.8549
- Inhibitory efficacy (PC-9 cells [8]; PC-9, 16uM, 16 µM): 0.8604 and 0.8477
